Measured values from patent publication US6756359B2, “C12 modified erythromycin macrolides and ketolides having antibacterial activity” (Chiron Corporation, priority 2001, dated 2004).
Values after ≈ are worked out from the molar mass of the structure shown.

Columns and labels:
Test in all cases: Antibacterial activity in vitro, MIC by broth microdilution
[1] = test system: H. influenzae Hain_49247; format: cell-based, Haemophilus influenzae; conditions: unit assumed
Outline: (§1)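 Visible-growth inhibition defined the MIC, obtained by NCCLS broth microdilution at 35° C. over 18-24 hours with a final inoculum of 3×10^5–7×10^5 CFU/mL.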

[2] = test system: S. pneumoniae Stpn_297-749 Pen R; format: cell-based, Streptococcus pneumoniae
Outline: as §1

[3] = test system: S. pneumoniae Stpn_280-962 Pen S; format: cell-based, Streptococcus pneumoniae
Outline: as §1

[4] = test system: S. pneumoniae Stpn_Mef S 3427; format: cell-based, Streptococcus pneumoniae
Outline: as §1

[5] = test system: S. pneumoniae Stpn_49619; format: cell-based, Streptococcus pneumoniae
Outline: as §1

[6] = test system: S. pneumoniae Stpn_Erm 6849; format: cell-based, Streptococcus pneumoniae; conditions: unit assumed
Outline: as §1

[7] = test system: S. pneumoniae Stpn_Mef 5654; format: cell-based, Streptococcus pneumoniae; conditions: unit assumed
Outline: as §1

[8] = test system: S. pneumoniae Stpn_Erm S 4297; format: cell-based, Streptococcus pneumoniae
Outline: as §1

[9] = test system: S. epidermidis Step_14990; format: cell-based; conditions: unit assumed
Outline: as §1

[10] = test system: S. epidermidis Step_f50654 Pen S; format: cell-based; conditions: unit assumed
Outline: as §1

[11] = test system: E. faecalis Enfa_29212; format: cell-based; conditions: unit assumed
Outline: as §1

[12] = test system: S. pyogenes Stpy_8668; format: cell-based
Outline: as §1

[13] = test system: E. coli Esco_25922; format: cell-based; conditions: Table 3, Strain ID M: E. coli Esco_25922; unit assumed
Outline: as §1

[14] = test system: S. aureus Stau_29213; format: cell-based; conditions: Table 5, Strain ID A: S. aureus Stau_29213; unit assumed
Outline: as §1

[15] = Table 3, Strain ID L: H. influenzae Hain_49247
[16] = Table 3, Strain ID F: S. pneumoniae Stpn_297-749 Pen R
[17] = Table 3, Strain ID G: S. pneumoniae Stpn_280-962 Pen S
[18] = Table 3, Strain ID K: S. pneumoniae Stpn_Mef S 3427, unit assumed
[19] = Table 3, Strain ID E: S. pneumoniae Stpn_49619
[20] = Table 3, Strain ID H: S. pneumoniae Stpn_Erm 6849
[21] = Table 3, Strain ID J: S. pneumoniae Stpn_Mef 5654
[22] = Table 3, Strain ID I: S. pneumoniae Stpn_Erm S 4297, unit assumed
[23] = Table 3, Strain ID A: S. epidermidis Step_14990
[24] = Table 3, Strain ID B: S. epidermidis Step_f50654 Pen S
[25] = Table 3, Strain ID C: E. faecalis Enfa_29212
[26] = Table 3, Strain ID D: S. pyogenes Stpy_8668, unit assumed
[27] = Table 5, Strain ID M: H. influenzae Hain_49247
[28] = Table 5, Strain ID G: S. pneumoniae Stpn_297-749
[29] = Table 5, Strain ID H: S. pneumoniae Stpn_280-962
[30] = Table 5, Strain ID F: S. pneumoniae Stpn_49619
[31] = Table 5, Strain ID I: S. pneumoniae Stpn_Erm 6849
[32] = Table 5, Strain ID K: S. pneumoniae Stpn_Mef 5654
[33] = Table 5, Strain ID J: S. pneumoniae Stpn_Erm S 4297
[34] = Table 5, Strain ID B: S. epidermidis Step_14990
[35] = Table 5, Strain ID C: S. epidermidis Step_f50654
[36] = Table 5, Strain ID D: E. faecalis Enfa_29212
[37] = Table 5, Strain ID E: S. pyogenes Stpy_8668
[38] = Table 5, Strain ID L: S. pneumoniae Stpn_Mef S 3427, unit assumed

Row | SMILES | MIC [1, 15] | MIC [2, 16] | MIC [3, 17] | MIC [4, 18] | MIC [5, 19] | MIC [6, 20] | MIC [7, 21] | MIC [8, 22] | MIC [9, 23] | MIC [1, 27] | MIC [2, 28] | MIC [3, 29] | MIC [5, 30] | MIC [6, 31] | MIC [7, 32] | MIC [14] | MIC [9, 34] | MIC [10, 35] | MIC [11, 36] | MIC [12, 37] | further results
1 | CC[C@H]1OC(=O)[C@H](C)C(=O)[C@H](C)[C@@H](O[C@@H]2O[C@H](C)C[C@H](N(C)C)[C@H]2O)[C@@](C)(OC)C[C@@H](C)C(=O)[C@H](C)[C@@H]2[C@@H]1OC(=O)N2CCCn1cnc(-c2ccccc2)c1 [Compound 4714] | > 50 µg/mL | ≦0.5 | ≦0.5 | 0.1 µg/mL (≈ 0.128 µM) | ≦0.5 | > 50 µg/mL | 0.4 µg/mL (≈ 0.511 µM) | 6.25 µg/mL (≈ 7.98 µM) | 6.25 µg/mL (≈ 7.98 µM) |  |  |  |  |  |  |  |  |  |  |  | MIC [10, 24]: 6.25 µg/mL (≈ 7.98 µM); MIC [11, 25]: 0.4 µg/mL (≈ 0.511 µM); MIC [12, 26]: 0.1 µg/mL (≈ 0.128 µM); MIC [13]: > 50 µg/mL
2 | C=C[C@]12OC(=O)N(CCCCn3cnc(-c4cccnc4)c3)[C@@H]1[C@@H](C)C(=O)[C@H](C)C[C@](C)(OC)[C@H](OC1O[C@H](C)C[C@H](N(C)C)[C@H]1O)[C@@H](C)C(=O)[C@](C)(F)C(=O)O[C@@H]2CC (stereo partly drawn) [Example 49, (3aS,4R,7S,9R,10R,11S,13R,15R,15aR)-4-ethyl-7-fluoro-11-methoxy-7,9,11,13,15-pentamethyl-2,6,8,14-tetraoxo-1-[4-(4-pyridin-3-yl-1H-imidazol-1-yl)butyl]-3a-vinyltetradecahydro-2H-oxacyclotetradecino[4,3-d][1,3]oxazol-10-yl 3,4,6-trideoxy-3-(dimethylamino)-D-xylo-hexopyranoside] |  |  |  |  |  |  |  |  |  | 6.25 µg/mL (≈ 7.42 µM) | ≦0.05 | ≦0.05 | ≦0.05 | 0.1 µg/mL (≈ 0.119 µM) | 0.78 µg/mL (≈ 0.926 µM) | 0.2 µg/mL (≈ 0.238 µM) | 0.2 µg/mL (≈ 0.238 µM) | 0.2 µg/mL (≈ 0.238 µM) | 0.1 µg/mL (≈ 0.119 µM) | ≦0.05 | MIC ([4]; Table 5, Strain ID L: S. pneumoniae Stpn_Mef S 3427): ≦0.05; MIC [8, 33]: ≦0.05

Now from value to compound, other results behind:

Row | MIC [1, 15] | MIC [2, 16] | MIC [3, 17] | MIC [4, 18] | MIC [5, 19] | MIC [6, 20] | MIC [7, 21] | MIC [8, 22] | MIC [9, 23] | MIC [1, 27] | MIC [2, 28] | MIC [3, 29] | MIC [5, 30] | MIC [6, 31] | MIC [7, 32] | MIC [14] | MIC [9, 34] | MIC [10, 35] | MIC [11, 36] | MIC [12, 37] | SMILES | further results
3 | 25 µg/mL (≈ 33 µM) | ≦0.5 | ≦0.5 | 0.4 µg/mL (≈ 0.528 µM) | ≦0.5 | > 50 µg/mL | 0.78 µg/mL (≈ 1.03 µM) | 25 µg/mL (≈ 33 µM) | 6.25 µg/mL (≈ 8.25 µM) |  |  |  |  |  |  |  |  |  |  |  | CC[C@H]1OC(=O)[C@H](C)C(=O)[C@H](C)[C@@H](O[C@@H]2O[C@H](C)C[C@H](N(C)C)[C@H]2O)[C@@](C)(OC)C[C@@H](C)C(=O)[C@H](C)[C@@H]2[C@@H]1OC(=O)N2CCCn1cnc2cccnc21 [Compound 4716] | MIC [10, 24]: 12.5 µg/mL (≈ 16.5 µM); MIC [11, 25]: 0.78 µg/mL (≈ 1.03 µM); MIC [12, 26]: 0.1 µg/mL (≈ 0.132 µM); MIC [13]: > 50 µg/mL
4 |  |  |  |  |  |  |  |  |  | 6.25 µg/mL (≈ 7.33 µM) | ≦0.05 | ≦0.05 | ≦0.05 | 0.1 µg/mL (≈ 0.117 µM) | 0.4 µg/mL (≈ 0.469 µM) | 0.4 µg/mL (≈ 0.469 µM) | 0.4 µg/mL (≈ 0.469 µM) | 0.2 µg/mL (≈ 0.235 µM) | 0.2 µg/mL (≈ 0.235 µM) | ≦0.05 | C=C[C@]12OC(=O)N(CCCC(C)(C)n3cnc(-c4cccnc4)c3)[C@@H]1[C@@H](C)C(=O)[C@H](C)C[C@](C)(OC)[C@H](OC1O[C@H](C)C[C@H](N(C)C)[C@H]1O)[C@@H](C)C(=O)[C@@H](C)C(=O)O[C@@H]2CC (stereo partly drawn) [Example 50, (3aS,4R,7R,9R,10R,11S,13R,15R,15aR)-4-ethyl-11-methoxy-7,9,11,13,15-pentamethyl-1-[4-methyl-4-(4-pyridin-3-yl-1H-imidazol-1-yl)pentyl]-2,6,8,14-tetraoxo-3a-vinyltetradecahydro-2H-oxacyclotetradecino[4,3-d][1,3]oxazol-10-yl 3,4,6-trideoxy-3-(dimethylamino)-D-xylo-hexopyranoside] | MIC [4, 38]: 0.1 µg/mL (≈ 0.117 µM); MIC [8, 33]: ≦0.05
5 |  |  |  |  |  |  |  |  |  | 6.25 µg/mL (≈ 7.3 µM) | ≦0.05 | ≦0.05 | ≦0.05 | 0.2 µg/mL (≈ 0.234 µM) | 0.4 µg/mL (≈ 0.467 µM) | 0.2 µg/mL (≈ 0.234 µM) | 0.2 µg/mL (≈ 0.234 µM) | 0.2 µg/mL (≈ 0.234 µM) | 0.01 µg/mL (≈ 0.0117 µM) | ≦0.05 | C/C=C\[C@]12OC(=O)N(CCCCn3cnc(-c4cccnc4)c3)[C@@H]1[C@@H](C)C(=O)[C@H](C)C[C@](C)(OC)[C@H](O[C@@H]1O[C@H](C)C[C@H](N(C)C)[C@H]1O)[C@@H](C)C(=O)[C@](C)(F)C(=O)O[C@@H]2CC [Example 66, (3aS,4R,7S,9R,10R,11S,13R,15R,15aR)-4-ethyl-7-fluoro-11-methoxy-7,9,11,13,15-pentamethyl-2,6,8,14-tetraoxo-3a-[(1Z)-prop-1-enyl]-1-[4-(4-pyridin-3-yl-1H-imidazol-1-yl)butyl]tetradecahydro-2H-oxacyclotetradecino[4,3-d][1,3]oxazol-10-yl 3,4,6-trideoxy-3-(dimethylamino)-D-xylo-hexopyranoside] | MIC [4, 38]: 0.1 µg/mL (≈ 0.117 µM); MIC ([8]; Table 5, Strain ID J: S. pneumoniae Stpn_Erm S 4297, unit assumed): 0.1 µg/mL (≈ 0.117 µM)
